# Assay results from US20220340633A1 (Adepthera LLC, priority 2016, published 2022).
# Entries after “also recorded” stand apart in the source; their conditions may differ. Positions of bridges follow the written chain, without caps; N, C: chain ends. Non-standard residues stand in square brackets, D forms with d. Residues, ends and D or L forms follow the SMILES beside them. *: point of attachment. Palmitoyl = CCCCCCCCCCCCCCCC(=O)*; AEEA = NCCOCCOCC(=O)O
# Key:
# [1] = system: primary human lymphatic endothelia cells (HLEC); assay: HLEC survival in medium with 0.1% FBS, MTS assay; conditions: 30, 100, and 300 nM, 72 hrs
# Description: The cells were cultured for 72 hrs, and cell viability was assayed with the MTS assay (Promega).
# CLR/RAMP2 receptor = biological target: T1, CLR/RAMP2 receptor (Homo sapiens, UniProt O60895+Q16602); assay: CLR/RAMP2 arrestin receptor activation assay (agonist); assay type: cell-based; conditions: for Emax: CHO-K1, read-out: CLR/RAMP 2 Max Activity % of positive control, CHO-K1 cells, % of positive control (ADM)
# T1 construct: host or cells: CHO-K1 cells
# Description: Using a receptor activation assay, the dose-dependent stimulatory response of peptide agonists of the present invention on a CLR/RAMP1 receptor, a CLR/RAMP2, or a CLR/RAMP3 receptor complex was determined. A cell line carrying the recombinant CLR/RAMP1, CLR/RAMP2, or a CLR/RAMP3 receptor was employed in the assay. Peptide agonist activities were tested, in duplicate, at 10 different concentrations, starting with 1.0 μM and serially diluted 3-fold, in DMSO. […] The CLR/RAMP1 cAMP, CLR/RAMP2 arrestin assays, and CLR/RAMP3 cAMP (DiscoveRx, Fremont, Calif.) were used.
# CLR/RAMP1 receptor = CLR/RAMP1 receptor (Homo sapiens, UniProt O60894+Q16602); assay: CLR/RAMP1 cAMP receptor activation assay (agonist); assay type: cell-based; set-up: host or cells: 1321N1 cells; conditions: 1321-N1, read-out: CLR/RAMP 1 Max Activity % of positive control, 1321N1 cells; % of positive control (β-CGRP)
# Chain of CLR/RAMP1 receptor (Q16602 23-461): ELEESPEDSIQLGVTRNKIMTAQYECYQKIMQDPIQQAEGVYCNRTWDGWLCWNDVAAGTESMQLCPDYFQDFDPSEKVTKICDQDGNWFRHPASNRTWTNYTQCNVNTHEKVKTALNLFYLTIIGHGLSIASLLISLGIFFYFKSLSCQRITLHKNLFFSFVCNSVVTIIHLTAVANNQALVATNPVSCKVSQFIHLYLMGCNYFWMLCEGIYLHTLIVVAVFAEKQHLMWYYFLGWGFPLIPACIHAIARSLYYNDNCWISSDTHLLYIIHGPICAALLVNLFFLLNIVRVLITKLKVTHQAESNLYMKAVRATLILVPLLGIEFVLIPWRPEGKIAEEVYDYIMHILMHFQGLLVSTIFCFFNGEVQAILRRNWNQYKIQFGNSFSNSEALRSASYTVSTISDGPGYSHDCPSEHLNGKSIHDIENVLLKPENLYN
# Chain of CLR/RAMP1 receptor (O60894 27-148): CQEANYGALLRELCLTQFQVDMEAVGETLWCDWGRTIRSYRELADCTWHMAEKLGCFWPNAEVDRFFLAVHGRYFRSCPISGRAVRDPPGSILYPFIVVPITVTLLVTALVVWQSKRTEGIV
# T1 sequence (Q16602 23-461): as the sequence (Q16602 23-461) above
# T1 sequence (O60895 43-175): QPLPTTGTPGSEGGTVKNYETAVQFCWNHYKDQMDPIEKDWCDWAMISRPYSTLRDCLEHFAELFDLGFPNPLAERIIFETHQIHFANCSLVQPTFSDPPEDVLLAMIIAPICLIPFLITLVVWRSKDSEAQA
Structure (SMILES),HLEC survival (in words) [1],Emax (CLR/RAMP2 receptor) [%],Emax (CLR/RAMP1 receptor) [%],receptor specificity of agonist (CLR/RAMP2 receptor; CLR/RAMP2 versus CLR/RAMP1)
CCCCCCCCCCCCCCCC(=O)N[C@@H](CCCCN)C(=O)N[C@H](C(=O)N[C@@H](CCCCN)C(=O)N[C@@H](CCCCN)C(=O)N[C@H](C(=O)N[C@@H](CC(C)C)C(=O)N[C@@H](CCCNC(=N)N)C(=O)N[C@H](C(=O)NCC(=O)N[C@H]1CSSC[C@@H](C(=O)N[C@H](C(=O)N[C@H](C(=O)N[C@@H](CCC(N)=O)C(=O)N[C@@H](CCCCN)C(=O)N[C@@H](CC(C)C)C(=O)N[C@@H](C)C(=O)N[C@@H](Cc2c[nH]cn2)C(=O)N[C@@H](CCC(N)=O)C(=O)N[C@H](C(=O)N[C@@H](Cc2ccc(O)cc2)C(=O)N[C@@H](CCC(N)=O)C(=O)N[C@@H](Cc2ccccc2)C(=O)N[C@H](C(=O)N[C@@H](CC(=O)O)C(=O)N[C@@H](CCCCN)C(=O)N[C@@H](CC(=O)O)C(=O)N[C@@H](CCCCN)C(=O)N[C@@H](CC(=O)O)C(=O)N[C@@H](CC(N)=O)C(=O)N[C@H](C(=O)N[C@@H](C)C(=O)N2CCC[C@H]2C(=O)N[C@H](C(=O)N[C@@H](CC(=O)O)C(=O)N2CCC[C@H]2C(=O)N[C@@H](CO)C(=O)N[C@@H](CO)C(=O)N2CCC[C@H]2C(=O)N[C@@H](Cc2c[nH]cn2)C(=O)N[C@@H](CO)C(=O)N[C@@H](Cc2ccc(O)cc2)C(N)=O)C(C)C)C(C)C)[C@@H](C)O)[C@@H](C)CC)C(C)C)[C@@H](C)O)NC(=O)[C@H]([C@@H](C)O)NC(=O)CNC(=O)[C@H](Cc2ccccc2)NC(=O)[C@H](CCCNC(=N)N)NC1=O)[C@@H](C)O)[C@@H](C)O)[C@@H](C)O [SEQ ID NO: 40],dose-dependently stimulated; also recorded: significantly promote,,,
CC[C@H](C)[C@H](NC(=O)[C@H](CCC(N)=O)NC(=O)[C@H](Cc1c[nH]cn1)NC(=O)[C@H](C)NC(=O)[C@H](CC(C)C)NC(=O)[C@H](CCCCN)NC(=O)[C@H](CCC(N)=O)NC(=O)[C@@H](NC(=O)[C@@H](NC(=O)[C@@H]1CSSC[C@H](NC(=O)CNC(=O)[C@H](CCCCN)NC(C)=O)C(=O)N[C@@H](CCCNC(=N)N)C(=O)N[C@@H](Cc2ccccc2)C(=O)NCC(=O)N[C@@H]([C@@H](C)O)C(=O)N1)[C@@H](C)O)C(C)C)C(=O)N[C@@H](Cc1ccc(O)cc1)C(=O)N[C@@H](CCC(N)=O)C(=O)N[C@@H](Cc1ccccc1)C(=O)N[C@H](C(=O)N[C@@H](CC(=O)O)C(=O)N[C@@H](CCCCN)C(=O)N[C@@H](CC(=O)O)C(=O)N[C@@H](CCCCN)C(=O)N[C@@H](CC(=O)O)C(=O)N[C@@H](CC(N)=O)C(=O)N[C@@H](CO)C(=O)N[C@@H](C)C(=O)N1CCC[C@H]1C(=O)N[C@H](C(=O)N[C@@H](CC(=O)O)C(=O)N1CCC[C@H]1C(=O)N[C@@H](CO)C(=O)N[C@@H](CO)C(=O)N1CCC[C@H]1C(=O)N[C@@H](Cc1c[nH]cn1)C(=O)N[C@@H](CO)C(=O)N[C@@H](Cc1ccc(O)cc1)C(N)=O)C(C)C)[C@@H](C)O [SEQ ID NO: 59],minimal effects; also recorded: negligible effects,,,
CCCCCCCCCCCCCCCC(=O)NCCCC[C@H](NC(=O)COCCOCCN)C(=O)NCC(=O)N[C@H]1CSSC[C@@H](C(=O)N[C@H](C(=O)N[C@H](C(=O)N[C@@H](CCC(N)=O)C(=O)N[C@@H](CCCCN)C(=O)N[C@@H](CC(C)C)C(=O)N[C@@H](C)C(=O)N[C@@H](Cc2c[nH]cn2)C(=O)N[C@@H](CCC(N)=O)C(=O)N[C@H](C(=O)N[C@@H](Cc2ccc(O)cc2)C(=O)N[C@@H](CCC(N)=O)C(=O)N[C@@H](Cc2ccccc2)C(=O)N[C@H](C(=O)N[C@@H](CC(=O)O)C(=O)N[C@@H](CCCCN)C(=O)N[C@@H](CC(=O)O)C(=O)N[C@@H](CCCCN)C(=O)N[C@@H](CC(=O)O)C(=O)N[C@@H](CO)C(=O)N[C@@H](C)C(=O)N2CCC[C@H]2C(=O)N[C@H](C(=O)N[C@@H](CC(=O)O)C(=O)N2CCC[C@H]2C(=O)N[C@@H](CO)C(=O)N[C@@H](CO)C(=O)N2CCC[C@H]2C(=O)N[C@@H](Cc2c[nH]cn2)C(=O)N[C@@H](CO)C(=O)N[C@@H](Cc2ccc(O)cc2)C(N)=O)C(C)C)[C@@H](C)O)[C@@H](C)CC)C(C)C)[C@@H](C)O)NC(=O)[C@H]([C@@H](C)O)NC(=O)CNC(=O)[C@H](Cc2ccccc2)NC(=O)[C@H](CCCNC(=N)N)NC1=O [SEQ ID NO: 46] (H-[AEEA]K(Palmitoyl)GCRFGTCTVQKLAHQIYQFTDKDKDSAPVDPSSPHSY-NH2; disulfide 4-9),,104,60,
CCCCCCCCCCCCCCCC(=O)NCCCC[C@H](NC(=O)COCCOCCN)C(=O)NCC(=O)N[C@H]1CSSC[C@@H](C(=O)N[C@H](C(=O)N[C@H](C(=O)N[C@@H](CCC(N)=O)C(=O)N[C@@H](CCCCN)C(=O)N[C@@H](CC(C)C)C(=O)N[C@@H](C)C(=O)N[C@@H](Cc2c[nH]cn2)C(=O)N[C@@H](CCC(N)=O)C(=O)N[C@H](C(=O)N[C@@H](Cc2ccc(O)cc2)C(=O)N[C@@H](CCC(N)=O)C(=O)N[C@@H](Cc2ccccc2)C(=O)N[C@H](C(=O)N[C@@H](CC(=O)O)C(=O)N[C@@H](CCCCN)C(=O)N[C@@H](CC(=O)O)C(=O)N[C@@H](CCCCN)C(=O)N[C@@H](CC(=O)O)C(=O)N[C@@H](CC(N)=O)C(=O)N[C@H](C(=O)N[C@@H](CC(=O)O)C(=O)N2CCC[C@H]2C(=O)N[C@@H](CO)C(=O)N[C@@H](CO)C(=O)N2CCC[C@H]2C(=O)N[C@@H](Cc2c[nH]cn2)C(=O)N[C@@H](CO)C(=O)N[C@@H](Cc2ccc(O)cc2)C(N)=O)C(C)C)[C@@H](C)O)[C@@H](C)CC)C(C)C)[C@@H](C)O)NC(=O)[C@H]([C@@H](C)O)NC(=O)CNC(=O)[C@H](Cc2ccccc2)NC(=O)[C@H](CCCNC(=N)N)NC1=O [SEQ ID NO: 94],,82,67,CLR/RAMP2-specific
CCCCCCCCCCCCCCCC(=O)NCCCC[C@H](NC(=O)COCCOCCN)C(=O)NCC(=O)N[C@H]1CSSC[C@@H](C(=O)N[C@H](C(=O)N[C@H](C(=O)N[C@@H](CCC(N)=O)C(=O)N[C@@H](CCCCN)C(=O)N[C@@H](CC(C)C)C(=O)N[C@@H](C)C(=O)N[C@@H](Cc2c[nH]cn2)C(=O)N[C@@H](CCC(N)=O)C(=O)N[C@H](C(=O)N[C@@H](Cc2ccc(O)cc2)C(=O)N[C@@H](CCC(N)=O)C(=O)N[C@@H](Cc2ccccc2)C(=O)N[C@H](C(=O)N[C@@H](CC(=O)O)C(=O)N[C@@H](CCCCN)C(=O)N[C@@H](CC(=O)O)C(=O)N[C@@H](CCCCN)C(=O)N[C@@H](CC(=O)O)C(=O)N[C@@H](CC(N)=O)C(=O)N[C@H](C(=O)N[C@@H](C)C(=O)N2CCC[C@H]2C(=O)N[C@@H](CCCNC(=N)N)C(=O)N[C@@H](CO)C(=O)N[C@@H](CCCCN)C(=O)N[C@@H](CO)C(=O)N[C@@H](CO)C(=O)N2CCC[C@H]2C(=O)N[C@@H](Cc2c[nH]cn2)C(=O)N[C@@H](CO)C(=O)N[C@@H](Cc2ccc(O)cc2)C(N)=O)C(C)C)[C@@H](C)O)[C@@H](C)CC)C(C)C)[C@@H](C)O)NC(=O)[C@H]([C@@H](C)O)NC(=O)CNC(=O)[C@H](Cc2ccccc2)NC(=O)[C@H](CCCNC(=N)N)NC1=O [SEQ ID NO: 61],,92,70,
CCCCCCCCCCCCCCCC(=O)NCCCC[C@H](NC(=O)COCCOCCN)C(=O)NCC(=O)N[C@H]1CSSC[C@@H](C(=O)N[C@H](C(=O)N[C@H](C(=O)N[C@@H](CCC(N)=O)C(=O)N[C@@H](CCCCN)C(=O)N[C@@H](CC(C)C)C(=O)N[C@@H](C)C(=O)N[C@@H](Cc2c[nH]cn2)C(=O)N[C@@H](CCC(N)=O)C(=O)N[C@H](C(=O)N[C@@H](Cc2ccc(O)cc2)C(=O)N[C@@H](CCC(N)=O)C(=O)N[C@@H](Cc2ccccc2)C(=O)N[C@H](C(=O)N[C@@H](CC(=O)O)C(=O)N[C@@H](CCCCN)C(=O)N[C@@H](CC(=O)O)C(=O)N[C@@H](CCCCN)C(=O)N[C@@H](CC(=O)O)C(=O)N[C@@H](CC(N)=O)C(=O)N[C@H](C(=O)N[C@@H](C)C(=O)N2CCC[C@H]2C(=O)N[C@H](C(=O)N[C@@H](CC(=O)O)C(=O)N2CCC[C@H]2C(=O)N[C@@H](CO)C(=O)N[C@@H](CO)C(=O)N2CCC[C@H]2C(=O)N[C@@H](Cc2c[nH]cn2)C(=O)N[C@@H](CO)C(=O)N[C@@H](Cc2ccc(O)cc2)C(N)=O)C(C)C)C(C)C)[C@@H](C)O)[C@@H](C)CC)C(C)C)[C@@H](C)O)NC(=O)[C@H]([C@@H](C)O)NC(=O)CNC(=O)[C@H](Cc2ccccc2)NC(=O)[C@H](CCCNC(=N)N)NC1=O [SEQ ID NO: 50],,87,65,
CCCCCCCCCCCCCCCC(=O)NCCCC[C@H](NC(=O)COCCOCCN)C(=O)N[C@H]1CSSC[C@@H](C(=O)N[C@H](C(=O)N[C@H](C(=O)N[C@@H](CCC(N)=O)C(=O)N[C@@H](CCCCN)C(=O)N[C@@H](CC(C)C)C(=O)N[C@@H](C)C(=O)N[C@@H](Cc2c[nH]cn2)C(=O)N[C@@H](CCC(N)=O)C(=O)N[C@H](C(=O)N[C@@H](Cc2ccc(O)cc2)C(=O)N[C@@H](CCC(N)=O)C(=O)N[C@@H](Cc2ccccc2)C(=O)N[C@H](C(=O)N[C@@H](CC(=O)O)C(=O)N[C@@H](CCCCN)C(=O)N[C@@H](CC(=O)O)C(=O)N[C@@H](CCCCN)C(=O)N[C@@H](CC(=O)O)C(=O)N[C@@H](CC(N)=O)C(=O)N[C@@H](CO)C(=O)N[C@@H](C)C(=O)N2CCC[C@H]2C(=O)N[C@H](C(=O)N[C@@H](CC(=O)O)C(=O)N2CCC[C@H]2C(=O)N[C@@H](CO)C(=O)N[C@@H](CO)C(=O)N2CCC[C@H]2C(=O)N[C@@H](Cc2c[nH]cn2)C(=O)N[C@@H](CO)C(=O)N[C@@H](Cc2ccc(O)cc2)C(N)=O)C(C)C)[C@@H](C)O)[C@@H](C)CC)C(C)C)[C@@H](C)O)NC(=O)[C@H]([C@@H](C)O)NC(=O)CNC(=O)[C@H](Cc2ccccc2)NC(=O)[C@H](CCCNC(=N)N)NC1=O [SEQ ID NO: 43] (H-[AEEA]K(Palmitoyl)CRFGTCTVQKLAHQIYQFTDKDKDNSAPVDPSSPHSY-NH2; disulfide 3-8),,30,39,
